# Reference: patent EP4603105A1, “PHARMACEUTICAL COMPOSITION CONTAINING CYCLIC COMPOUND HAVING SELECTIVE KRAS INHIBITORY EFFECT AGAINST HRAS AND NRAS” (CHUGAI SEIYAKU KABUSHIKI KAISHA, priority 2022, dated 2024)
# pIC50: −log10 of the molar value. Where a SMILES comes first, the peptide text is derived from it. Bridges are numbered along the chain shown (N, C = ends). [ ]: non-standard residue; d: D form. The star is where a group is joined. hPhe(3-Cl-4-CF3) = N[C@@H](CCc1ccc(C(F)(F)F)c(Cl)c1)C(=O)O; NPrPhe(4-CF3) = CCCN[C@@H](Cc1ccc(C(F)(F)F)cc1)C(=O)O; NMeGly(cPent) = CN[C@H](C(=O)O)C1CCCC1; Hyp = O=C(O)[C@@H]1C[C@@H](O)CN1; NMeD = CN[C@@H](CC(=O)O)C(=O)O; NMeL = CN[C@@H](CC(C)C)C(=O)O; Morpholide = C1CN(*)CCO1; Ac5c = NC1(C(=O)O)CCCC1; Aze = O=C(O)[C@@H]1CCN1; Ac4c = NC1(C(=O)O)CCC1; NEtG = CCNCC(=O)O; Sar = CNCC(=O)O
# Columns and labels:
# [1] = biological target: GDP-bound NRAS wild-type protein (Homo sapiens, UniProt P01111); experiment: Binding to NRAS by surface plasmon resonance (SPR), KD and KD ratio to KRAS
# Sequence of GDP-bound NRAS wild-type protein (P01111 whole entry): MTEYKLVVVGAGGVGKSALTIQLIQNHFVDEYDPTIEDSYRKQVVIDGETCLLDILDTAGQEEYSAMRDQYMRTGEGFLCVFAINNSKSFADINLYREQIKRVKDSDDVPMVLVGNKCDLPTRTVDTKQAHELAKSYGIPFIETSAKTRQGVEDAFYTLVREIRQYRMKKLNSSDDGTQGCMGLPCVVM
# Method in brief: (§1)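 SPR, 30°C: Avi-biotin RAS·GDP captured via Biotin CAPture (~100–300 RU); running buffer HBS pH 7.4, 1 mM DTT, 10 mM MgCl2, 0.01% Tween 20, 10 µM GDP, 4% DMSO. Single-cycle kinetics, 100 µL/min, 75 s injections; 1:1 model → KD.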
# HRAS wild-type protein = HRAS wild-type protein (Homo sapiens, UniProt P01112); experiment: Binding to HRAS by surface plasmon resonance (SPR), KD and KD ratio to KRAS
# Sequence of HRAS wild-type protein (P01112 whole entry): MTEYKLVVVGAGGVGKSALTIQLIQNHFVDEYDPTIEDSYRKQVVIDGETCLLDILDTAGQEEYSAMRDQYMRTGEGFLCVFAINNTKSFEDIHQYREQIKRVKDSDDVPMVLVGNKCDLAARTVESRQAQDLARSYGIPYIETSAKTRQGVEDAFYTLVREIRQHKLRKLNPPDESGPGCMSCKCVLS
# Method in brief: as §1
# [2] = system: human lung cancer strain NCI-H441; format: cell-based
# Method in brief: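 Proliferation was scored by […] measured after the reagent was added to cultures kept at 37°C in 5% carbon dioxide.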
# [3] = ratio of KD for GDP-bound NRAS wild-type protein to KD for KRAS
# [4] = ratio of KD for HRAS wild-type protein to KD for KRAS
pIC50 [2],SMILES,"NRAS /KRAS [1, 3]",HRAS /KRAS (HRAS wild-type protein; [4]),NRAS /KRAS ([1]; ratio of the KD value with respect to GDP-bound NRAS wild-type protein to the KD value with respect to KRAS),HRAS /KRAS (HRAS wild-type protein; ratio of the KD value with respect to HRAS wild-type protein to the KD value with respect to KRAS)
7.84,CCCN1C(=O)CN(C)C(=O)[C@@H]2CCN2C(=O)[C@H]([C@@H](C)CC)NC(=O)[C@H](CC(C)C)N(C)C(=O)C[C@@H](C(=O)N2CCOCC2)N(C)C(=O)[C@H](C2CCCC2)N(C)C(=O)C2(CCC2)NC(=O)[C@@H]2C[C@@H](OCC)CN2C(=O)[C@H](CCc2ccc(C(F)(F)F)c(Cl)c2)NC(=O)CN(C)C(=O)[C@@H]1Cc1ccc(C(F)(F)F)cc1 [PP0405] ([NMeL]I[Aze][Sar][NPrPhe(4-CF3)][Sar][hPhe(3-Cl-4-CF3)][Hyp](Et)[Ac4c][NMeGly(cPent)][NMeD]-Morpholide; lactam N-11),–,–,B (a compound having 3 or more and less than 10 is denoted as B),C (A compound having a KD ratio of 0.1 or more and less than 3 is denoted as C)
6.64,CCO[C@@H]1C[C@H]2C(=O)NC3(CCC3)C(=O)N(C)[C@@H](C3CCCC3)C(=O)N(C)[C@H](C(=O)N3CCOCC3)CC(=O)N(C)[C@@H](COC)C(=O)N[C@@H]([C@@H](C)CC)C(=O)N3CC[C@H]3C(=O)N(C)[C@H]3CCCCCN(C3=O)[C@@H](Cc3ccc(C(F)(F)F)cc3)C(=O)N(C)CC(=O)N[C@@H](CCc3cc(F)c(C(F)(F)F)c(F)c3)C(=O)N2C1 [PP0863],B (a compound having 3 or more and less than 10 is denoted as B),B (a compound having 3 or more and less than 10 is denoted as B),–,–
7.51,CCCN1C(=O)CN(C)C(=O)CN(CC)C(=O)[C@H]([C@@H](C)CC)NC(=O)[C@H](CC(C)C)N(C)C(=O)C[C@@H](C(=O)N(C)C)NC(=O)[C@H](C2CCCC2)N(C)C(=O)C2(CCCC2)NC(=O)[C@@H]2C[C@@H](OCC)CN2C(=O)[C@H](CCc2ccc(C(F)(F)F)c(Cl)c2)NC(=O)CN(C)C(=O)[C@@H]1Cc1ccc(C(F)(F)F)cc1 [PP0371] ([NMeL]I[NEtG][Sar][NPrPhe(4-CF3)][Sar][hPhe(3-Cl-4-CF3)][Hyp](Et)[Ac5c][NMeGly(cPent)]D-NMe2; lactam N-11),B (a compound having 3 or more and less than 10 is denoted as B),C (A compound having a KD ratio of 0.1 or more and less than 3 is denoted as C),–,–
8.37,CCCN1C(=O)CN(C)C(=O)CN(CC)C(=O)[C@H]([C@@H](C)CC)NC(=O)[C@H](CC(C)C)N(C)C(=O)C[C@@H](C(=O)N2CCOCC2)N(C)C(=O)[C@H](C2CCCC2)N(C)C(=O)C2(CCCC2)NC(=O)[C@@H]2C[C@@H](OC)CN2C(=O)[C@H](CCc2ccc(C(F)(F)F)c(Cl)c2)NC(=O)CN(C)C(=O)[C@@H]1Cc1ccc(C(F)(F)F)cc1 [PP0296] ([NMeL]I[NEtG][Sar][NPrPhe(4-CF3)][Sar][hPhe(3-Cl-4-CF3)][Hyp](Me)[Ac5c][NMeGly(cPent)][NMeD]-Morpholide; lactam N-11),B (a compound having 3 or more and less than 10 is denoted as B),C (A compound having a KD ratio of 0.1 or more and less than 3 is denoted as C),–,–
7.89,CCO[C@@H]1C[C@H]2C(=O)NC3(CCC3)C(=O)N(C)[C@@H](C3CCCC3)C(=O)N(C)[C@H](C(=O)N(C)C)CC(=O)N(C)[C@@H](CC3CC3)C(=O)N[C@@H]([C@@H](C)CC)C(=O)N(C)CC(=O)N(C)[C@H]3C/C=C\CCN(C3=O)[C@@H](Cc3ccc(C(F)(F)F)cc3)C(=O)N(C)CC(=O)N[C@@H](CCc3cc(F)c(C(F)(F)F)c(F)c3)C(=O)N2C1 [PP1111],A (a compound having 10 or more and less than 20 is denoted as A),A (a compound having 10 or more and less than 20 is denoted as A),–,–
6.46,CCO[C@@H]1C[C@H]2C(=O)NC3(CCC3)C(=O)N(C)[C@@H](C3CCCC3)C(=O)N(CC)[C@H](C(=O)N3CCOCC3)CC(=O)N(C)[C@@H](CC)C(=O)N[C@@H]([C@@H](C)CC)C(=O)N(C)CC(=O)N(C)[C@H]3CCCCCN(C3=O)[C@@H](Cc3ccc(C(F)(F)F)cc3)C(=O)N(C)CC(=O)N[C@@H](CCc3cc(F)c(C(F)(F)F)c(F)c3)C(=O)N2C1 [PP0944],A (a compound having 10 or more and less than 20 is denoted as A),A (a compound having 10 or more and less than 20 is denoted as A),–,–
8.37,CC[C@H](C)[C@@H]1NC(=O)[C@@H]2CCCCc3ccc(cc3)C[C@@H](C(=O)N(C)CC(=O)N[C@@H](CCc3ccc(C(F)(F)F)c(OC)c3)C(=O)N3C[C@H](OC4CCCC4)C[C@H]3C(=O)NC3(CC(C)(C)C3)C(=O)N(C)[C@@H](C3CCCC3)C(=O)N(C)[C@H](C(=O)N(C)C)CC(=O)N2C)N2CC/C=C\C[C@@H](C2=O)N(C)C(=O)CN(C)C1=O [PP3080],A (a compound having 10 or more and less than 20 is denoted as A),B (a compound having 3 or more and less than 10 is denoted as B),–,–

SMILES,pIC50 [2],"NRAS /KRAS [1, 3]",HRAS /KRAS (HRAS wild-type protein; [4]),NRAS /KRAS ([1]; ratio of the KD value with respect to GDP-bound NRAS wild-type protein to the KD value with respect to KRAS),HRAS /KRAS (HRAS wild-type protein; ratio of the KD value with respect to HRAS wild-type protein to the KD value with respect to KRAS)
CCO[C@@H]1C[C@H]2C(=O)NC3(CCC3)C(=O)N(C)[C@@H](C3CCCC3)C(=O)N(C)[C@H](C(=O)N3CCCCC3)CC(=O)N(C)[C@H]3CCC/C=C/c4ccc(cc4)C[C@@H](C(=O)N(C)CC(=O)N[C@@H](CCc4cc(F)c(C(F)(F)F)c(F)c4)C(=O)N2C1)N1CC/C=C\C[C@@H](C1=O)N(C)C(=O)CN(C1CC1)C(=O)[C@H]([C@@H](C)CC)NC3=O [PP2954],7.78,A (a compound having 10 or more and less than 20 is denoted as A),A (a compound having 10 or more and less than 20 is denoted as A),–,–
